Earlier results on one molecule are cited in patent US9060937B2, “Pharmaceutical compositions” (priority 2006, dated 2015).

The conditions of the data set: in water.

For the molecule `CCCCC1=NC2(CCCC2)C(=O)N1Cc1ccc(-c2ccccc2-c2nnn[nH]2)cc1` [irbesartan, Irbesartan], the solubility is under 0.1 µg/mL.
